According to ChEMBL document CHEMBL6083201, “Identification of triazolyl KAT6 inhibitors via a templated fragment approach” (Bioorg Med Chem Lett, 2024):

Biological target: Histone acetyltransferase KAT6A (Homo sapiens, UniProt Q92794)
Experiment: Inhibition of KAT6A (unknown origin)

Sequence of Histone acetyltransferase KAT6A (Q92794 whole entry): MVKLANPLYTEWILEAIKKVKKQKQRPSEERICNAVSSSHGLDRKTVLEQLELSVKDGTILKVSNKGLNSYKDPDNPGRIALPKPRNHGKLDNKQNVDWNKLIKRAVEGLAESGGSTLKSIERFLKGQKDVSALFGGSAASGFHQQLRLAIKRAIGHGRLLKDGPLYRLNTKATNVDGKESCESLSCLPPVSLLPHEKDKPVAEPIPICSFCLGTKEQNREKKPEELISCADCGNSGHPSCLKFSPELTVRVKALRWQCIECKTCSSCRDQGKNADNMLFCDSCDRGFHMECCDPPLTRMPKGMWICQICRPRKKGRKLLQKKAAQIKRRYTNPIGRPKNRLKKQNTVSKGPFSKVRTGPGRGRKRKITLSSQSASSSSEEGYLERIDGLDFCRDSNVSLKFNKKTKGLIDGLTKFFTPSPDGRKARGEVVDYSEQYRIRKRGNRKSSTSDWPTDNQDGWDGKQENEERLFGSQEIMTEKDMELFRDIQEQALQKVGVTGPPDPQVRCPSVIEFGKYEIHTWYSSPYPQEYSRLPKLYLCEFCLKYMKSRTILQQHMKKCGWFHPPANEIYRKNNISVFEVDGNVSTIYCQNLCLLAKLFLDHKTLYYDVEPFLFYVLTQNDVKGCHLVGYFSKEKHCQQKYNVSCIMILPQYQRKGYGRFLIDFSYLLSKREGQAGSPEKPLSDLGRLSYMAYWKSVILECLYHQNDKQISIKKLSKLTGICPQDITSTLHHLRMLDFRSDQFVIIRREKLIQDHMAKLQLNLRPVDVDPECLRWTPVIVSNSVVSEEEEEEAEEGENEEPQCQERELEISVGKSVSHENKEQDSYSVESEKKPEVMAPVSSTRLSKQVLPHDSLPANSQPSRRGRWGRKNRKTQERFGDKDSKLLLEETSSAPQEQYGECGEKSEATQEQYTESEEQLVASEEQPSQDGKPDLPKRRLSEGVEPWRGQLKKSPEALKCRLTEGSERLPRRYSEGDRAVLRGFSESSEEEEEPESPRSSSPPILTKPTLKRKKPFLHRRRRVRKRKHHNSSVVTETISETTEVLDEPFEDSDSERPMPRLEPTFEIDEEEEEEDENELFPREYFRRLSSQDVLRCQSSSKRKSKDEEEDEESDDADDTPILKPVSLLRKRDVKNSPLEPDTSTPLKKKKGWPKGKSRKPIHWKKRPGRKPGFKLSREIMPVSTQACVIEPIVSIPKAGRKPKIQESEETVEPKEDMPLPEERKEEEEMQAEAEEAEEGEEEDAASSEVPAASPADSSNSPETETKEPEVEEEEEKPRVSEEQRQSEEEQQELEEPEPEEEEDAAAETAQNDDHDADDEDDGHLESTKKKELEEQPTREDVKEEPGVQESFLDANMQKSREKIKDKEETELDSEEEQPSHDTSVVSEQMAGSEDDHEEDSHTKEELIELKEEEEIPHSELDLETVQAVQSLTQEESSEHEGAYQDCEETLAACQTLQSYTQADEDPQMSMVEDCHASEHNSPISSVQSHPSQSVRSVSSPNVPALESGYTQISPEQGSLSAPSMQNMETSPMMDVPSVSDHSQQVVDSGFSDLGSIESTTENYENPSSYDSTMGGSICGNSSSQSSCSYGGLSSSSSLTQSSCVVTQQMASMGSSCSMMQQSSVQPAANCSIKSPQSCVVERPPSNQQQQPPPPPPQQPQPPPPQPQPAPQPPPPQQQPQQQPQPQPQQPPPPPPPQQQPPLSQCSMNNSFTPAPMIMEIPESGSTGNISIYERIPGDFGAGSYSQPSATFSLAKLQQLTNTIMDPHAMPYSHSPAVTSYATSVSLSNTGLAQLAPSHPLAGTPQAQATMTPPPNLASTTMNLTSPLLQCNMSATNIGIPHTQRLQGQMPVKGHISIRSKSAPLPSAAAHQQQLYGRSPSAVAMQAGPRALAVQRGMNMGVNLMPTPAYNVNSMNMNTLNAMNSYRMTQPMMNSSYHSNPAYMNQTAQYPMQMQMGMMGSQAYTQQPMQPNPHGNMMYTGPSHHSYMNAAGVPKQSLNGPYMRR

## COc1ccc(C2=CCN(C)CC2)cc1-n1cc(NS(=O)(=O)c2ccccc2)nn1
  IC50: > 100 µM
